In patent US20120322863A1, “PREVENTION OF AND COUNTERMEASURES AGAINST MITOCHONDRIAL DISEASE” (priority 2004, published 2012):

Test system: patient with mitochondrial disease
Test: Clinical Example 2: administration to a patient with mitochondrial disease
Type: in vivo, human
Settings: agent dose in terms of L-arginine 0.5 g/kg/hr
Protocol: The agent for treating mitochondrial disease of the present invention was administered to a patient with mitochondrial disease at a dose in terms of L-arginine of 0.5 g/kg/hr.

With `N=C(N)NCCC[C@H](N)C(=O)O` [L-arginine alone, L-arginine] the “effects on the symptoms of the mitochondrial disease” value was “did not sufficiently exhibit” and the vomiting was “repetitive vomiting”.
